According to patent publication US20100048682A1, “INHIBITING DNA POLYMERASE BETA TO ENHANCE EFFICACY OF ANTICANCER AGENTS” (UNIVERSITY OF PITTSBURGH - OF THE COMMONWEALTH SYSTEM OF …, priority 2005, published 2010):

Assays:
[1] = tested on: γ-H2AX; assay: γ-H2AX immunoblotting; assay type: cell-based, mouse; details: MMS 1 hr or TMZ 2 hr exposure
Procedure: For γ-H2AX immunoblotting, protein was prepared as follows: briefly, 6×10^5 cells were seeded into 150 mm dishes and incubated for 24 hours at 10% CO2 at 37° C. Cells were treated with MMS and TMZ for 1 or 2 hr respectively, and whole cells were scraped from the plates in 1×PBS, washed, and immediately placed on dry ice. Thawed pellets were re-suspended in a 1:1 ratio of RIPA buffer and Laemmli buffer. Samples were boiled for 5 minutes and protein from an equal cell number was added to each well. Protein was separated by electrophoresis in a 12% SDS-polyacrylamide gel and electro-transferred to a […] nitrocellulose membrane (Trans-Blot, Bio-Rad). Membranes were blocked for 20 minutes in a 3% dried milk/TBS solution at room temperature and incubated with 0.5-1 μg/ml of anti-phospho-H2AX (Serine 139) (Upstate) prepared in TBS/3% dried milk and 0.1% Tween20 over night at 4° C. Membranes were washed twice with water and incubated with horseradish peroxidase (HRP)-conjugated secondary antibody (goat anti-rabbit HRP; Bio-Rad) at room temperature for 1.5 hour. Following a series of washes with water and TBS, HRP activity was detected using the Super Signal West Femto reagent (Pierce). Each membrane was re-probed with anti-PCNA to correct for differences in protein loading, and densitometry was used to quantitate with Quantity One 1-D analysis software (BioRad).

[2] = tested on: Wt cells (92TAg); assay: TMZ growth inhibition assay (modified MTT, MTS); assay type: cell-based; details: Mus musculus, TMZ exposure 48 hr
Procedure: (§1) Culture Conditions and Cell Cytotoxicity Assays. Transformed MEFs were cultured at 37° C. in a humidified incubator with 10% CO2 in DMEM supplemented with 10% fetal bovine serum, penicillin (50 units/ml), streptomycin (50 μg/ml) and Glutamax (4 mM). Human embryonic kidney cells (293T) were cultured similarly in DMEM supplemented with 10% fetal bovine serum, penicillin (50 units/ml), streptomycin (50 μg/ml) and Glutamine (4 mM). TMZ, MMS and MMC induced cytotoxicity was determined by growth inhibition assays. Briefly, cells were seeded in 96-well dishes at 1250 cells/well. After 24 hours, cells (quadruplicate wells) were exposed to serial dilutions of damaging agent in growth media for 1-2 hours (or as indicated in the text) at 37° C. Drug-containing medium was replaced with fresh medium and the plates were incubated at 37° C. for 48 hours at which point the total cell number was determined by a modified MTT assay (MTS; Promega). Metabolically active cells were quantified by the bioreduction of the MTS tetrazolium compound by recording absorbance at 490 nm using a microplate reader. Results were calculated from the average of four separate experiments and are reported as the % of treated cells relative to the cells in control wells (% Control).

[3] = tested on: Wt pol-β knockdown cells over-expressing hAag (wt hAag.2/polβ-KD.4, wt hAag.3/polβ-KD.4); assay: TMZ growth inhibition assay (modified MTT, MTS); assay type: cell-based, mouse; details: for IC50: Mus musculus
Text: Cell Lines and Transfection Conditions. Transformed MEF cell lines (92TAg, Wt; 88TAg, pol-β null; 308TAg, Aag null and 283TAg, pol-β null/Aag null) have been described previously and are available from the ATCC. 293T cells were a gift from J. O'Bryan (NIEHS, NIH). Primary cultures of pol-λ, null MEFs were a kind gift from C.A. Reynaud (Faculte de Medecine Necker-Enfants Malades, Paris, France). The pol-ι null MEFs were derived from C129SvJ mice as described previously and identified by PCR to confirm the pol-ι null mutation. These were immortalized by SV40 large T-antigen (370TAg, pol-λ, null; 369TAg, pol-ι null) as described previously. Human Aag over-expressing cell lines were prepared as follows: briefly, 1.5×10^5 cells were seeded into 60 mm dishes and incubated for 24-30 hours at 10% CO2 at 37° C. The Aag expression plasmid (pRS1422) was transfected using FuGene 6 Transfection Reagent (Roche Diagnostic Corp) according to the manufacturer's instructions. Stable cell lines were selected in G418 (600 μg/ml) for 2 weeks, individual clones were amplified and 20 μg of nuclear extract was analyzed by immunoblotting for the expression of human Aag protein and then re-probed for expression of pol-β and PCNA.
Transfection of the pSuper siRNA plasmids was completed as follows: Briefly, 1.5×10^5 cells were seeded into 60 mm dishes and incubated for 24-30 hours at 10% CO2 at 37° C. […] For transient transfections, cells were lysed 24 hours post transfection by boiling in Laemmli buffer and analyzed by immunoblotting for the expression of the V5-pol-β transgene using anti-V5 (Invitrogen). […] Individual clones were amplified and 20 μg of nuclear extract was analyzed by immunoblotting for the expression of endogenous pol-β protein using the Nucbuster nuclear protein extract reagent (Novagen) and then re-probed for expression of PCNA as a loading control.
Culture Conditions and Cell Cytotoxicity Assays. […] TMZ, MMS and MMC induced cytotoxicity was determined by growth inhibition assays. […]

[4] = tested on: MDA-MB-231 cells with Mpg/Aag over-expression combined with pol-β knockdown; assay: Temozolomide growth inhibition assay (MTS); assay type: cell-based, human; details: TMZ 48 hours; compared to the parental MDA-MB-231 cells
Procedure: Culture Conditions and Cell Cytotoxicity Assays. Human Mpg over-expression, human pol-β knockdown and human pol-β over-expressing MDA-MB-231 breast cancer cell lines were cultured at 37° C. in a humidified incubator with 5% CO2 in RPMI 1640 (Cambrex Biosciences Group, Walkersville, Md.) supplemented with 10% heat inactivated fetal bovine serum and gentamicin (10 μg/ml). Temozolomide induced cytotoxicity was determined by growth inhibition assays. Briefly, cells were seeded in 96-well dishes at 2000 cells/well. After 24 hours, cells (quadruplicate wells) were exposed to serial dilutions of Temozolomide in growth media at 37° C. for 48 hours at which point the total cell number was determined by a modified 3-(4,5-dimethylthiazol-2-yl)-2,5-diphenyltetrazolium bromide (MTT) assay (MTS; Promega Madison, Wis.) (Cory et al., Cancer Communications; 3(7):207-12 (1991)). Metabolically active cells were quantified by the bioreduction of the MTS tetrazolium compound by recording absorbance at 490 nm using a microplate reader. Results were calculated from the average of four separate experiments and are reported as the % of treated cells relative to the cells in control wells (% Control).

[5] = tested on: pol-β null cells (88TAg); assay: Growth inhibition assay (modified MTT, MTS); assay type: cell-based, mouse; details: MTS viability 48 hr after 1-2 hr exposure
Procedure: as §1

COS(C)(=O)=O [MMS, Methyl methanesulfonate]
γ-H2AX expression in pol-β deficient cells as compared to Wt cells [1]: clear increase

Cn1nnc2c(C(N)=O)ncn2c1=O [TMZ, temozolomide]
IC50 [2]: 2600 µM | IC50 ([3]; TMZ exposure 2 hr, viable cells after 48 hr, wt hAag.2/polβ-KD.4 and wt hAag.3/polβ-KD.4 cells): 1250 µM | IC50 ([3]; TMZ exposure 48 hr, wt hAag.3/Polβ-KD.4 cells): ~700 µM | TMZ efficacy improved ([3]; TMZ exposure 48 hr, hAag over-expression plus pol-β knockdown compared with Wt cells): ~4 fold | decrease in IC50 [4]: ~10 fold

CO[C@@]12[C@H](COC(N)=O)C3=C(C(=O)C(C)=C(N)C3=O)N1C[C@@H]1N[C@@H]12 [MMC, Mitomycin C]
sensitivity of pol-β null cells relative to Wt and other null cells [5]: equally sensitive
